Experimental data taken from PMC7238120, “Strong and Selective Inhibitory Effects of the Biflavonoid Selamariscina A against CYP2C8 and CYP2C9 Enzyme Activities in Human Liver Microsomes” (Pharmaceutics, 2020).
Read-outs that look alike come from different tables or passages of the source.

Tests used:
Type in all cases: in vitro ADME
CYP1A2 = target: T1, CYP1A2 (Homo sapiens, UniProt P05177); test: Inhibition of CYP1A2-catalyzed phenacetin O-deethylation in pooled human liver microsomes
T1 construct: incubation mixtures containing pooled human liver microsomes (HLMs, XTreme 200, XenoTech); tissue XenoTech XTreme 200; host or cells: pooled human liver microsomes
T1 sequence (P05177 1-516): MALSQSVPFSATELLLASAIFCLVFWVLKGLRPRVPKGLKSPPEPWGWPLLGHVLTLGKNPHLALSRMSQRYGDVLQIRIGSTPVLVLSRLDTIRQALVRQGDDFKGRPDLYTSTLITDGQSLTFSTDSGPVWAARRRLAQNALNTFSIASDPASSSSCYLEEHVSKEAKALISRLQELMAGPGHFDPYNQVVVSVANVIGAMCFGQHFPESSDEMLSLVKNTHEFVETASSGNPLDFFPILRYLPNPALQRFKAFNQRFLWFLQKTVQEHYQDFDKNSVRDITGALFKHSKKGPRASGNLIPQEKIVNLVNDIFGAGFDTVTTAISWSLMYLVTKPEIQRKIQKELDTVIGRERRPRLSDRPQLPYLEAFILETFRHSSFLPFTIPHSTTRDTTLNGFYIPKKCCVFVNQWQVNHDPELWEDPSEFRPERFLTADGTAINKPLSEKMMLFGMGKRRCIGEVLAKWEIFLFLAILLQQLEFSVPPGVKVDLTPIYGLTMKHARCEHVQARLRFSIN
Protocol: (§1) The inhibitory potential of the five biflavonoids on the metabolism of nine P450 probe substrates was evaluated using previously developed methods with minor modifications. Biflavonoids were dissolved in methanol. The final concentration of methanol in the incubation mixture was 1.0% (v/v). We used these P450 probe substrates: phenacetin for CYP1A2, coumarin for CYP2A6, bupropion for CYP2B6, amodiaquine for CYP2C8, diclofenac for CYP2C9, omeprazole for CYP2C19, dextromethorphan for CYP2D6, chlorzoxazone for CYP2E1 and midazolam for CYP3A (Table 1). […] The reaction was stopped by adding 50 μL of ice-cold acetonitrile containing 7 nM trimipramine (internal standard, IS). After centrifugation at 18,000 g (5 min, 4 °C), aliquots of supernatants were analyzed by LC-MS/MS (Shimadzu LCMS 8060 system, Shimadzu, Kyoto, Japan). All microsomal incubations were conducted in triplicate. We used HLMs to determine the mechanisms and constants (Ki values) for […] A inhibition of CYP1A2, CYP2B6, CYP2C8, CYP2C9 and CYP3A. […] The substrates were used at concentrations approximately near to their respective Km values. […] The other conditions were the same as in the cytochrome P450 inhibition study. […] Phenomenex, Torrance, CA, USA) and analyzed using a Shimadzu LCMS 8060 triple-quadrupole mass spectrometer coupled with a Nexera X2 ultra high-performance liquid chromatography system (Shimadzu, Kyoto, Japan) equipped with an electrospray ionization interface. The mobile phase consisted of 0.1% formic acid in water (A) and 0.1% formic acid in acetonitrile (B). […] The flow rate was 0.2 mL/min. Electrospray ionization was performed in positive-ion mode at 4000 V or in negative-ion mode at -3500 V. […] Quantitation was conducted in selected reaction monitoring (SRM) modes with the precursor-to-product ion transition for each metabolite (Table 1 and Table 2). We analyzed the data with Shimadzu LabSolution LC-MS software. The IC50 values were calculated by WinNonlin software (Pharsight, Mountain View, CA, USA). The type of inhibition and the apparent kinetic parameters for inhibitory activity (Ki) were determined by following several criteria: visual inspection of Dixon plots, Lineweaver-Burk double reciprocal plots, and secondary plots of Lineweaver-Burk plots versus biflavonoid concentrations, the size of the sum of squares of the residuals, Akaike Information Criteria values, the S.E. and 95% confidence interval of the parameter estimates from the nonlinear regression analysis using the WinNonlin software. The models tested included competitive, competitive partial, noncompetitive, noncompetitive partial, uncompetitive, uncompetitive partial, and mixed-type inhibition.

CYP2B6 = target: T2, CYP2B6 (Homo sapiens, UniProt P20813); test: Inhibition of CYP2B6-catalyzed bupropion hydroxylation in pooled human liver microsomes
T2 construct: incubation mixtures containing pooled human liver microsomes (HLMs, XTreme 200, XenoTech); tissue XenoTech XTreme 200; host or cells: pooled human liver microsomes
T2 sequence (P20813 1-491): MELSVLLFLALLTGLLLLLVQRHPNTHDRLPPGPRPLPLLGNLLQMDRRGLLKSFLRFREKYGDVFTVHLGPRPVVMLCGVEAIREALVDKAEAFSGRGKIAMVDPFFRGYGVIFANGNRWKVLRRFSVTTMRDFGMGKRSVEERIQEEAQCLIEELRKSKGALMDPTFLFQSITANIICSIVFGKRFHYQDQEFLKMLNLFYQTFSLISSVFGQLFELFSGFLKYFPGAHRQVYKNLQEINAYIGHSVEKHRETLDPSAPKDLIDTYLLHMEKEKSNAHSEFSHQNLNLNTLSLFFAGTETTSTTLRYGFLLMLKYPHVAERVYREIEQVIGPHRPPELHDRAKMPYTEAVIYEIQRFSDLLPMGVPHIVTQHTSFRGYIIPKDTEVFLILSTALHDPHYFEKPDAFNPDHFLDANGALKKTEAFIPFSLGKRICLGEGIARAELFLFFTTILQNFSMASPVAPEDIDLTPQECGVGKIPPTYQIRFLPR
Protocol: as §1

CYP3A = CYP3A (Homo sapiens, UniProt P08684); test: Inhibition of CYP3A-catalyzed midazolam 1'-hydroxylation in pooled human liver microsomes
Chain of CYP3A (P08684 2-503): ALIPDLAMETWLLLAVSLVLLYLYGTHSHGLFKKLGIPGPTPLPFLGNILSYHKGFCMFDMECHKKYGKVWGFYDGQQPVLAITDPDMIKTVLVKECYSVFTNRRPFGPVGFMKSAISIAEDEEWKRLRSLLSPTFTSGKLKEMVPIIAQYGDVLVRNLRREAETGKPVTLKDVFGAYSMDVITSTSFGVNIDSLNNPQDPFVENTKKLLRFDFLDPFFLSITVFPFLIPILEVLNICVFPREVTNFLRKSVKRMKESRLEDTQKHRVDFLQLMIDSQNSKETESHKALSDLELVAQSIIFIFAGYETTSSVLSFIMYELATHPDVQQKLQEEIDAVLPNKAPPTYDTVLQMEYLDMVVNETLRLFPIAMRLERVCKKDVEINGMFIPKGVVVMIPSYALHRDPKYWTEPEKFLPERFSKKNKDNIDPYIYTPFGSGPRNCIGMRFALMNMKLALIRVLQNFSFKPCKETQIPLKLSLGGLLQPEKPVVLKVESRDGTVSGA
Protocol: as §1

CYP2C9 = CYP2C9 (Homo sapiens, UniProt P11712); test: Inhibition of CYP2C9-catalyzed diclofenac 4-hydroxylation in pooled human liver microsomes; set-up: incubation mixtures containing pooled human liver microsomes (HLMs, XTreme 200, XenoTech); tissue XenoTech XTreme 200; host or cells: pooled human liver microsomes
Chain of CYP2C9 (P11712 whole entry): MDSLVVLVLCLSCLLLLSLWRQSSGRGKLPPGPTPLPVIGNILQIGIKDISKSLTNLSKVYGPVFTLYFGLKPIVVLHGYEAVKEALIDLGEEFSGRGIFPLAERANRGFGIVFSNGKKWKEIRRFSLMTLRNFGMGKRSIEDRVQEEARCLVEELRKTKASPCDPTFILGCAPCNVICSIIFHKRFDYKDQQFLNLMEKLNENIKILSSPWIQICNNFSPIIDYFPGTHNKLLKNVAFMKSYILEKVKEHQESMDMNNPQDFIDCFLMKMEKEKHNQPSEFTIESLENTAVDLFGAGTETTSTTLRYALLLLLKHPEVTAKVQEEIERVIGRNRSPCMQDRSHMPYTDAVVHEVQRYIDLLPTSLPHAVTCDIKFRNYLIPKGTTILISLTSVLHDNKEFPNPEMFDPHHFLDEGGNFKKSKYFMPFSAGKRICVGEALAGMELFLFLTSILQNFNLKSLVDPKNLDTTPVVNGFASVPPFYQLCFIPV
Protocol: as §1

[1] = substrate phenacetin 100 µM, pooled HLMs, read-out: IC50, P450 1A2
[2] = substrate bupropion 50 µM, pooled HLMs, read-out: IC50, P450 2B6
[3] = human, pooled human liver microsomes, probe midazolam (5 µM), substrate midazolam 5 µM, pooled HLMs, read-out: IC50, P450 3A
[4] = substrate diclofenac 10 µM, pooled HLMs, read-out: IC50, P450 2C9
[5] = HLMs, average ± standard error, triplicate

Row | Structure (SMILES) | IC50 (CYP1A2; [1]) | IC50 (CYP2B6; [2]) | IC50 at 10 min (CYP3A; [3]) | IC50 (CYP2C9; [4]) | IC50 at 10 min (CYP3A; human, microsomes) | further results
1 | O=C1CC(c2cc(-c3c(O)ccc4c(=O)cc(-c5ccc(O)cc5)oc34)c(O)cc2O)Oc2cc(O)cc(O)c21 (centres unmarked) [selamariscina A] | 7.4 µM | 5.3 µM | 2.7 µM | 0.047 µM |  | Mode of Inhibition, CYP1A2 phenacetin (CYP1A2; HLMs): Competitive; Ki (CYP1A2; [5]): 3.1 ± 0.6 µM; Mode of Inhibition, CYP2B6 bupropion (CYP2B6; HLMs): Noncompetitive; Ki (CYP2B6; [5]): 7.9 ± 1.1 µM; Mode of Inhibition, CYP3A midazolam (CYP3A; HLMs): Noncompetitive; Ki at 10 min (CYP3A; human, pooled human liver microsomes, probe midazolam (0.5, 2, 5 μM), HLMs, average ± standard error, triplicate): 4.5 ± 0.5 µM; Mode of Inhibition, CYP2C9 diclofenac (CYP2C9; HLMs): Competitive; Ki (CYP2C9; [5]): 0.032 ± 0.007 µM; inhibition at 10 min, 0.5 µM (CYP2C9; human, pooled human liver microsomes, probe diclofenac, inhibitor 0.5 μM, pooled HLMs): 88.6%
2 | CC(C)(O)c1ccccc1CC[C@@H](SCC1(CC(=O)O)CC1)c1cccc(/C=C/c2ccc3ccc(Cl)cc3n2)c1 [montelukast, reference compound] | > 50 µM | > 50 µM |  | 9.73 µM | > 50 µM | inhibition at 10 min, 5 µM (CYP2B6; human, pooled human liver microsomes, probe bupropion, inhibitor 5 μM, pooled HLMs): 20.4%; inhibition at 10 min, 5 µM (CYP2C9; human, pooled human liver microsomes, probe diclofenac, inhibitor 5 μM, pooled HLMs): 31%
3 | O=c1cc(-c2ccc(O)c(-c3c(O)cc(O)c4c(=O)cc(-c5ccc(O)cc5)oc34)c2)oc2cc(O)cc(O)c12 [amentoflavone] |  |  |  |  | 1.3 µM | IC50 (CYP1A2): 4.4 µM; IC50 (CYP2B6): 7.1 µM; IC50 (CYP2C9): 0.15 µM

More lines, main results first:

Row | IC50 (CYP1A2; [1]) | IC50 (CYP2B6; [2]) | IC50 at 10 min (CYP3A; [3]) | IC50 (CYP2C9; [4]) | Structure (SMILES) | IC50 at 10 min (CYP3A; human, microsomes) | further results
4 | 5.9 µM | 6.7 µM | 1.5 µM | 0.21 µM | O=c1cc(-c2ccc(O)cc2)oc2c(-c3c(O)cc(O)c4c(=O)cc(-c5ccc(O)cc5)oc34)c(O)cc(O)c12 [cupressuflavone] |  | 
5 | 4.5 µM | 5.7 µM | 1.2 µM | 0.15 µM | O=c1cc(-c2ccc(O)c(-c3c(O)cc4oc(-c5ccc(O)cc5)cc(=O)c4c3O)c2)oc2cc(O)cc(O)c12 [robustaflavone] |  | 
6 | 6.8 µM | 6.4 µM | 1.2 µM | 0.2 µM | O=c1cc(-c2ccc(O)c(-c3c(-c4ccc(O)cc4)oc4cc(O)cc(O)c4c3=O)c2)oc2cc(O)cc(O)c12 [taiwaniaflavone] |  | 
